# Laboratory results as given in patent US9469645B2, “Compounds and compositions for the treatment of parasitic diseases” (Novartis AG, priority 2009, dated 2016).
# Read-outs that look alike come from different tables or passages of the source.
# Tests used:
# 3D7 P. falciparum strain = experiment: parasite proliferation assay in infected red blood cells (SYBR Green I); format: cell-based, Plasmodium falciparum; settings: 3D7 strain, read-out: EC50 3D7 strain
# Outline: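 P. falciparum 3D7 grown in O+ human erythrocytes to 3–8% parasitemia and exposed to compounds. Proliferation read as the increase in parasite DNA. Detection used SYBR Green I in saponin/triton-X/EDTA lysis buffer, with overnight lysis at room temperature.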
# W2 strain = experiment: parasite proliferation assay in infected red blood cells (SYBR Green I), W2 strain; format: cell-based, Plasmodium falciparum
# Description: Compounds of the invention can be assayed to measure their capacity to inhibit proliferation of parasitemia in infected red blood cells. The proliferation is quantified by the addition of SYBR Green I (INVITROGEN)® dye which has a high affinity for double stranded DNA.
# [1] = Plasmodium falciparum, 3D7, Erythrocyte
# [2] = Plasmodium falciparum, Erythrocyte
Compound,EC50 (3D7 P. falciparum strain; [1]),EC50 (W2 strain; [2]),EC50 (3D7 P. falciparum strain),EC50 (W2 strain; W2 strain)
O=C([C@@H]1CCN1)N1CCn2c(nc(-c3ccc(F)cc3)c2Nc2ccc(F)cc2)C1 [Compound 477],0.07 µM,0.055 µM,,
CCN(c1cccc(F)c1)c1c(-c2ccc(F)cc2)nc2n1CCNC2 [Compound 446],0.31 µM,0.243 µM,,
CN1CC(C)(C)n2c(nc(-c3ccc(F)cc3)c2Nc2ccc(F)cc2)C1(C)C [Compound 536],6.4 µM,5.93 µM,,
CC1(C)c2nc(-c3ccc(F)cc3)c(Nc3ccc(C#N)c(Cl)c3)n2CCN1C(=O)CN [Compound 534],0.04 µM,0.019 µM,,
Cc1ccc(Nc2c(-c3ccc(F)c(C)c3)nc3n2CCN(C(=O)C(C)(C)N)C3)cc1 [Compound 518],4.98 µM,2.89 µM,,
CC1(C)NCCn2c1nc(-c1ccc(F)cc1)c2Nc1cc(F)c(F)c(F)c1 [Compound 555],0.01 µM,0.016 µM,,
CC1(C)c2nc(-c3ccc(F)cc3)c(Nc3cccc(C(F)(F)F)c3)n2CCN1C(=O)C(F)(F)F [Compound 528],0.15 µM,0.121 µM,,
CC(C)N(c1ccc(Cl)c(F)c1)c1c(-c2ccc(F)cc2)nc2n1CCNC2 [Compound 444],7.22 µM,5.96 µM,,
CC(C)[C@H](N)C(=O)N1CCn2c(nc(-c3ccc(F)cc3)c2Nc2ccc(F)c(F)c2)C1 [Compound 434],0.02 µM,0.019 µM,,
CC(C)[C@@H](O)C(=O)N1CCn2c(nc(-c3ccc(F)cc3)c2Nc2ccc(Cl)cc2)C1 [Compound 456],0.02 µM,0.015 µM,,
Cc1ccc(Nc2c(-c3ccc(F)c(F)c3)nc3n2CCN(C(=O)[C@H](C)N)C3)cc1 [Compound 406],0.06 µM,0.04 µM,,
CC1(C)NC(=O)Cn2c1nc(-c1ccc(F)c(F)c1)c2Nc1ccc(Cl)c(F)c1 [Compound 551],0.04 µM,0.098 µM,,
Cc1ccc(Nc2c(-c3ccc(Cl)c(F)c3)nc3n2CCNC3)cc1 [Compound 498],6.34 µM,6.74 µM,,
CC(C)(N)C(=O)N1CCn2c(nc(-c3ccc(F)cc3)c2Nc2ccc(Cl)c(Cl)c2)C1 [Compound 410],0.06 µM,0.037 µM,,
Cc1cc(Nc2c(-c3ccc(F)cc3)nc3n2CCN(C(=O)CN)C3(C)C)ccc1F [Compound 495],0.09 µM,0.039 µM,,
CC1(C)NC(=O)Cn2c1nc(-c1ccc(F)cc1)c2Nc1ccc(S(C)(=O)=O)cc1 [Compound 567],6.46 µM,8.46 µM,,
CC1(C)NCCn2c1nc(-c1ccc(F)cc1)c2Nc1ccc(F)c(C#N)c1 [Compound 524],0.04 µM,0.057 µM,,
Cc1ccc(Nc2c(-c3ccc(F)cc3)nc3n2C(C)(C)C(=O)N(C)C3(C)C)cc1 [Compound 538],7.67 µM,8.06 µM,,
CC(C)[C@H]1NC(=O)Cn2c1nc(-c1ccc(F)cc1)c2Nc1ccc(Cl)cc1 [Compound 549],1.7 µM,3.26 µM,,
CC1(C)c2nc(-c3ccc(F)cc3)c(NC3CCCCC3)n2CCN1C(=O)CN [Compound 531],0.04 µM,0.057 µM,,
CC1(C)Cn2c(nc(-c3ccc(F)cc3)c2Nc2ccc(C#N)c(F)c2)CN1C(=O)CN [Compound 577],0.63 µM,0.611 µM,,

Compound,EC50 (3D7 P. falciparum strain; [1]),EC50 (W2 strain; [2]),EC50 (3D7 P. falciparum strain),EC50 (W2 strain; W2 strain)
C[C@H]1NC(=O)Cn2c1nc(-c1ccc(F)cc1)c2Nc1ccc(Cl)c(F)c1 [Compound 564],0.25 µM,0.359 µM,,
CC1(C)NC(=O)Cn2c1nc(-c1ccc(F)cc1)c2Nc1ccc(C#N)c(Cl)c1 [Compound 548],2.63 µM,5.55 µM,,
Cc1cc(Nc2c(-c3ccc(F)cc3)nc3n2CCN(C(=O)C(C)(C)N)C3(C)C)ccc1Cl [Compound 589],0.01 µM,0.006 µM,,
C[C@H](N)C(=O)N1CCn2c(nc(-c3ccc(F)cc3)c2Nc2ccc(F)c(F)c2)C1 [Compound 435],0.05 µM,0.098 µM,,
N[C@H](C(=O)N1CCn2c(nc(-c3ccc(F)cc3)c2Nc2ccc(Cl)c(F)c2)C1)C1CC1 [Compound 487],0.04 µM,0.031 µM,,
C[C@@H]1NC(=O)Cn2c1nc(-c1ccc(F)cc1)c2Nc1ccc(Cl)cc1 [Compound 563],0.31 µM,0.445 µM,,
"CN1Cc2nc(-c3ccc(F)cc3)c(Nc3ccc(Cl)cc3)n2CC1(C)C [Compound 556, N-(4-chlorophenyl)-2-(4-fluorophenyl)-6,6,7-trimethyl-5,6,7,8-tetrahydroimidazo[1,2-a]pyrazin-3-amine]",0.06 µM,0.075 µM,,
CC(C)[C@H]1NC(=O)Cn2c1nc(-c1ccc(F)cc1)c2Nc1ccc(Cl)c(F)c1 [Compound 550],2.56 µM,3.6 µM,,
O=C([C@@H]1CCN1)N1CCn2c(nc(-c3ccc(F)cc3)c2Nc2ccc(F)c(F)c2)C1 [Compound 441],0.06 µM,0.081 µM,,
N[C@H](C(=O)N1CCn2c(nc(-c3ccc(F)cc3)c2Nc2ccc(F)cc2)C1)c1ccc(F)cc1 [Compound 472],0.05 µM,0.037 µM,,
CCN1CCCC1CNc1c(-c2ccc(F)cc2)nc2n1CC(=O)NC2(C)C (centres unmarked) [Compound 561],7.17 µM,4.4 µM,,
Cc1ccc(Nc2c(-c3ccc(F)c(C)c3)nc3n2CCN(C(=O)CN)C3)cc1 [Compound 517],0.05 µM,0.051 µM,,
Cc1ccc(Nc2c(-c3ccc(F)cc3)nc3n2CCNC3(C)C)cc1F [Compound 541],0.01 µM,0.01 µM,,
Cc1ccc(Nc2c(-c3ccc(F)cc3)nc3n2CC(=O)NC3(C)C)cc1 [Compound 507],0.14 µM,0.136 µM,,
COc1cc(Nc2c(-c3ccc(F)cc3)nc3n2CCN(C(=O)C(C)(C)N)C3)cc(F)c1F [Compound 427],0.21 µM,0.436 µM,,
C[C@H]1c2nc(-c3ccc(F)cc3)c(Nc3ccc(Cl)c(F)c3)n2CCN1C(=O)CN [Compound 597],0.03 µM,0.024 µM,,
CC(C)[C@H](O)C(=O)N1CCn2c(nc(-c3ccc(F)cc3)c2Nc2ccc(Cl)cc2)C1 [Compound 455],0.01 µM,0.008 µM,,
CN[C@@H](C(=O)N1CCn2c(nc(-c3ccc(F)cc3)c2Nc2ccc(C)cc2)C1)C(C)C [Compound 414],0.16 µM,0.156 µM,,
Cc1cc(Nc2c(-c3ccc(F)cc3)nc3n2CCN(C(=O)C(C)(C)N)C3)cc(C)c1F [Compound 428],0.17 µM,0.242 µM,,
Cc1ccc(Nc2c(-c3ccc(F)c(C)c3)nc3n2CCNC3)cc1 [Compound 494],2.82 µM,2.14 µM,,
"tert-butyl 1-(2-(4-fluorophenyl)-5,6-dihydroimidazo[1,2-a]pyrazin-7(8H)-yl)-2-methyl-1-oxopropan-2-ylcarbamate [Compound 530]",,,1.23 µM,6.42 µM

Compound,EC50 (3D7 P. falciparum strain; [1]),EC50 (W2 strain; [2]),EC50 (3D7 P. falciparum strain),EC50 (W2 strain; W2 strain)
CC(C)(N)C(=O)N1CCn2c(nc(-c3ccc(F)cc3)c2Nc2ccc(Cl)cc2)C1(C)C [Compound 584],0.02 µM,0.021 µM,,
Cc1cc(Nc2c(-c3ccc(F)cc3)nc3n2CCN(C(=O)CN)C3(C)C)ccc1Cl [Compound 496],0.03 µM,0.008 µM,,
CN[C@@H](Cc1ccc(Cl)cc1)C(=O)N1CCn2c(nc(-c3ccc(F)cc3)c2Nc2ccc(C)cc2)C1 [Compound 400],0.18 µM,0.105 µM,,
CC1(C)NCCn2c1nc(-c1ccc(F)cc1)c2Nc1ccc(F)c(F)c1 [Compound 422],0.01 µM,0.021 µM,,
Cc1ccc(Nc2c(-c3ccc(F)cc3)nc3n2CCNC3(C)C)cc1 [Compound 415],0.01 µM,0.013 µM,,
Cc1ccc(Nc2c(-c3ccc(F)cc3)nc3n2CCN(C(=O)[C@@H](N)c2ccc(F)cc2)C3)cc1 [Compound 482],0.02 µM,0.009 µM,,
CC1(C)Cn2c(nc(-c3ccc(F)cc3)c2Nc2ccc(F)c(F)c2)CN1 [Compound 580],0.15 µM,0.169 µM,,
Cc1ccc(Nc2c(-c3ccc(F)cc3)nc3n2CCN(C(=O)CNC(C)(C)C)C3)cc1 [Compound 399],0.22 µM,0.196 µM,,
CC1(C)NC(=O)Cn2c1nc(-c1ccc(F)cc1)c2Nc1ccc(Cl)c(Cl)c1 [Compound 506],0.19 µM,0.198 µM,,
N[C@@H](Cc1ccc(F)c(F)c1)C(=O)N1CCn2c(nc(-c3ccc(F)cc3)c2Nc2ccc(F)c(F)c2)C1 [Compound 433],0.04 µM,0.049 µM,,
CN1CCN(c2ccc(Nc3c(-c4ccc(F)cc4)nc4n3CCN(C(=O)CN)C4(C)C)cc2)CC1 [Compound 571],6.2 µM,7.48 µM,,
CC(C)(N)C(=O)N1CCn2c(nc(-c3ccc(F)cc3)c2Nc2ccc(F)c(Cl)c2)C1(C)C [Compound 586],0.01 µM,0.007 µM,,
Cc1ccc(Nc2c(-c3cccc(F)c3)nc3n2C(C)(C)CN(C(=O)CN)C3)cc1 [Compound 594],0.02 µM,0.032 µM,,
Cc1ccc(Nc2c(-c3ccc(F)cc3)nc3n2CCN(C(=O)C(C)Nc2ccc(C)cc2)C3)cc1 (centres unmarked) [Compound 407],0.71 µM,0.523 µM,,
CC1(C)NC(=O)Cn2c1nc(-c1ccc(F)cc1)c2Nc1cccc(C(F)(F)F)c1 [Compound 500],1.56 µM,1.1 µM,,
N[C@@H](Cc1ccc(F)cc1)C(=O)N1CCn2c(nc(-c3ccc(F)cc3)c2Nc2ccc(F)cc2)C1 [Compound 473],0.03 µM,0.021 µM,,
N[C@@H](Cc1cscn1)C(=O)N1CCn2c(nc(-c3ccc(F)cc3)c2Nc2ccc(F)cc2)C1 [Compound 476],0.04 µM,0.027 µM,,
N[C@@H](Cc1ccc(F)cc1)C(=O)N1CCn2c(nc(-c3ccc(F)cc3)c2Nc2ccc(Cl)cc2)C1 [Compound 458],0.02 µM,0.017 µM,,
CC(C)(C)[C@H](N)C(=O)N1CCn2c(nc(-c3ccc(F)cc3)c2Nc2ccc(F)cc2)C1 [Compound 478],0.06 µM,0.039 µM,,
